Measurements from US11932602B2, “Method for preparing nicotinamide mononucleotide cocrystal” (BONTAC BIO-ENGINEERING(SHENZHEN) CO., LTD, priority 2021, dated 2024).

Conditions: screened with a sieve (1.00 mm, No. 18), poured into glass graduated measuring cylinder, apparent volume
Method: The tops were scraped flat. The apparent volumes were recorded. The bulk densities were calculated.

NC(=O)c1ccc[n+]([C@@H]2O[C@H](COP(=O)([O-])O)[C@@H](O)[C@H]2O)c1 [Form 1, nicotinamide mononucleotide anhydrous crystal (form 1)]
Bulk density: 0.15 g/mL
